Assay results taken from the supplement of paper PMC10307832.

How the values were obtained:
Assay in all cases: relative viability (nuclei count vs DMSO), 5 days (fraction); higher = more cells survive
[1] = compound: C1CC(C1)(C(=O)O)C(=O)O.[NH2-].[NH2-].[Pt+2] [Carboplatin] + CC(C)C[C@H](NC(=O)[C@H](Cc1ccccc1)NC(=O)c1cnccn1)B(O)O [Bortezomib] (partner 0.002 µM)
Procedure, shortened: (§1)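 A single step with final 0.05% Triton X-100, 1% formaldehyde and 1 ug/ml Hoechst fixed the cells and stained nuclei 5 days after treatment. Lung cancer cell lines in 1536-well plates had been treated by pin tool the day after seeding with one drug alone or a fixed anchor-drug dose plus five library-drug doses (not always all listed) in √10 steps, and nuclei were counted on 4× images. Relative viability is the ratio of nuclei in treated wells to nuclei in vehicle wells, taken as the median of duplicate plates.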

[2] = compound: C1CC(C1)(C(=O)O)C(=O)O.[NH2-].[NH2-].[Pt+2] [Carboplatin] + C[C@]1(O)C[C@@H](c2nc(-c3ccc4ccc(-c5ccccc5)nc4c3)c3c(N)nccn32)C1 [Linsitinib] (partner 1 µM)
Procedure, shortened: as §1

[3] = compound: NS(=O)(=O)OC[C@@H]1C[C@@H](n2ccc3c(N[C@H]4CCc5ccccc54)ncnc32)C[C@@H]1O [MLN4924] + Cc1nc(Nc2ncc(C(=O)Nc3c(C)cccc3Cl)s2)cc(N2CCN(CCO)CC2)n1 [Dasatinib] (partner 0.075 µM)
Procedure, shortened: as §1

[4] = compound: C1CC(C1)(C(=O)O)C(=O)O.[NH2-].[NH2-].[Pt+2] [Carboplatin] + N=C(N)NC(=N)NCCc1ccccc1 [Phenformin] (partner 250 µM)
Procedure, shortened: as §1

Cell Line	relative viability ([1]; first compound 0.08 µM)	relative viability ([1]; first compound 0.253 µM)	relative viability ([1]; first compound 0.8 µM)	relative viability ([1]; first compound 2.53 µM)	relative viability ([1]; first compound 8 µM)	relative viability ([2]; first compound 0.08 µM)	relative viability ([2]; first compound 0.253 µM)	relative viability ([2]; first compound 0.8 µM)	relative viability ([2]; first compound 2.53 µM)	relative viability ([2]; first compound 8 µM)	relative viability ([3]; first compound 0.04 µM)	relative viability ([3]; first compound 0.1265 µM)	relative viability ([3]; first compound 0.4 µM)	relative viability ([3]; first compound 1.265 µM)	relative viability ([3]; first compound 4 µM)	relative viability ([4]; first compound 0.08 µM)	relative viability ([4]; first compound 0.253 µM)	relative viability ([4]; first compound 0.8 µM)	relative viability ([4]; first compound 2.53 µM)	relative viability ([4]; first compound 8 µM)
NCI-H441	0.239	0.777	0.618	0.459	0.364	0.608	0.506	0.662	0.544	0.573	0.603	0.47	0.337	0.212	0.141	0.769	0.963	1	0.876	0.839
NCI-H3122	1.07	1.02	1.01	0.944	0.96	0.947	1.01	0.991	1.08	0.973	0.148	0.487	0.147	0.056	0.071	0.4	0.399	0.385	0.37	0.359
HCC-78	0.561	0.502	0.383	0.497	0.508	0.509	0.461	0.416	0.46	0.511	0.412	0.307	0.604	0.314	0.152	0.829	0.685	0.641	0.726	0.744
HCC-827	1.18	1.09	1.09	1.02	0.991	1.04	0.891	0.857	0.936	0.955	0.483	0.608	0.771	0.265	0.187	0.444	0.394	0.428	0.366	0.365
Calu-6	0.927	0.974	0.925	0.823	0.496	0.988	0.948	0.943	0.967	0.601										
NCI-H2009	1.12	0.938	0.945	0.918	0.671	1.21	1.14	1.09	1.09	0.807	0.374	0.261	0.166	0.0589	0.0792	0.519	0.47	0.444	0.433	0.42
NCI-H322M	1.26	1.23	1.2	1.22	1.14	0.915	0.956	0.785	0.812	0.799	0.311	0.655	0.693	0.27	0.289	0.884	0.738	0.775	0.74	0.712
NCI-H23	1.1	1.11	1.08	0.861	0.784	0.536	0.716	0.542	0.563	0.492	0.722	0.785	0.681	0.335	0.208	0.824	0.753	0.768	0.727	0.714
NCI-H358						0.826	0.806	0.796	0.772	0.751	0.211	0.31	0.25	0.113	0.0832	0.426	0.418	0.395	0.431	0.334
NCI-H1944						1.24	1.09	1.16	1.29	0.898	0.218	0.232	0.23	0.155	0.133	0.217	0.193	0.186	0.181	0.181
NCI-H1755	0.995	1.02	0.992	1.01	0.887	1.12	0.947	1.03	1.02	0.952	0.417	0.464	0.463	0.237	0.221	0.65	0.618	0.623	0.604	0.576
NCI-H1650	0.221	0.195	0.193	0.198	0.178						0.41	0.291	0.267	0.166	0.179	0.457	0.5	0.359	0.406	0.349
HCC-44	0.968	0.882	0.833	0.864	0.785	0.668	0.685	0.606	0.478	0.543						0.344	0.191	0.194	0.187	0.144
NCI-H522											0.845	0.863	0.652	0.546	0.437	0.516	0.679	0.648	0.686	0.64
IA-LM	0.804	0.836	0.633	0.792	0.535	0.617	0.766	0.632	0.582	0.461										
NCI-H1623											0.626	0.573	0.341	0.227	0.183	0.586	0.609	0.586	0.534	0.513
SK-MES-1						1.11	1.05	1.04	1.01	0.936	0.584	0.626	0.256	0.121	0.147	0.681	0.672	0.671	0.638	0.592
NCI-H2170											0.866	0.767	0.264	0.127	0.129	0.429	0.446	0.402	0.38	0.41
LK-2						0.634	0.765	0.458	0.428	0.726	0.28	0.261	0.285	0.162	0.196	0.683	0.47	0.343	0.398	0.563
NCI-H1395						1.02	1.05	0.82	0.751	0.576	0.474	0.493	0.552	0.507	0.331	0.476	0.446	0.497	0.379	0.402
